Measured values as given in patent US10206902B2, “Mono- or di-substituted indoles as dengue viral replication inhibitors” (priority 2014, dated 2019).

Key:
DENV-4 strain H241 = test: Tetravalent RT-qPCR assay Protocol A, serotype 4 H241; assay type: cell-based; conditions: Dengue virus, DENV4, 72 h, RT-qPCR serotype 4 H241, Vero cells, day 3
Description: The antiviral activity of the compounds of the invention was tested against DENV-1 strain TC974#666 (NCPV), DENV-2 strain 16681, DENV-3 strain H87 (NCPV) and DENV-4 strains H241 (NCPV) and EDEN (SG/06K2270DK1/2005; GenBank accession number QG398256) in a RT-qPCR assay. Therefore, Vero cells were infected with either DENV-1, or -2, or -3, or -4 in the presence or absence of test compounds. At day 3 post-infection, the cells were lysed and cell lysates were used to prepare cDNA of both a viral target (the 3′UTR of DENV; table 2) and a cellular reference gene (β-actin, table 2). Subsequently, a duplex real time PCR was performed on a Lightcycler480 instrument. The generated Cp value is inversely proportional to the amount of RNA expression of these targets. Inhibition of DENV replication by a test compound result in a shift of Cp's for the 3′UTR gene. On the other hand, if a test compound is toxic to the cells, a similar effect on β-actin expression will be observed. The comparative ΔΔCp method is used to calculate EC50, which is based on the relative gene expression of the target gene (3′UTR) normalized with the cellular housekeeping gene (β-actin). In addition, CC50 values were determined based on the Cp values acquired for the housekeeping gene β-actin.
The culture medium consisted of minimal essential medium supplemented with 2% of heat-inactivated fetal calf serum, 0.04% gentamycin (50 mg/mL) and 2 mM of L-glutamine. Vero cells, obtained from ECACC, were suspended in culture medium and 75 μL/well was added in 96-well plates (10000 cells/well), which already contain the antiviral compounds. Typically, these plates contain a 4-fold serial dilution of 9 dilution steps of the test compound at 200 times the final concentration in 100% DMSO (500 nL; final concentration range: 25 μM-0.00038 μM). In addition, each plate contains wells which are assigned as virus controls (containing cells and virus in the absence of compound) and cell controls (containing cells in the absence of virus and compound). Once the cells were added in the plates, the plates were incubated in a fully humidified incubator (37° C., 5% CO2) until the next day. Then, DENV-1 strain TC974#666, DENV-2 strain 16681, DENV-3 strain H87 or DENV-4 strains H241 or EDEN were added. […] In parallel, 25 μL of culture medium was added to the cell controls. Next, the plates were incubated for 3 days in a fully humidified incubator (37° C., 5% CO2). After 3 days, the supernatant was removed from the wells and the cells were washed twice with ice-cold PBS (˜100 μL). The cell pellets within the 96-well plates were stored at −80° C. for at least 1 day. Next, RNA was extracted using the Cells-to-CT™ lysis kit, according to the manufacture's guideline (Applied Biosystems). The cell lysates can be stored at −80° C. or immediately used in the reverse transcription step. In preparation of the reverse transcription step, mix A (table 3A) was prepared and 7.57 μL/well was dispensed in a 96-well plate. After addition of 5 μL of the cell lysates, a five minute denaturation step at 75° C. was performed (table 3B). Afterwards, 7.43 μL of mix B was added (table 3C) and the reverse transcription step was initiated (table 3D) to generate cDNA.
Finally, a RT-qPCR mix was prepared, mix C (table 4A), dispensed in 96-well LightCycler qPCR plates to which 3 μL of cDNA was added and the qPCR was performed according to the conditions in table 4B on a LightCycler 480. Using the LightCycler software and an in-house LIMS system, dose response curves for each compound were calculated and the half maximal effective concentration (EC50) and the half maximal cytotoxic concentration (CO50) were determined (Tables 6-9).

[1] = test system: DENV-3 strain H87 prototype; test: Tetravalent RT-qPCR assay Protocol B, serotype 3; assay type: cell-based; conditions: Dengue virus, DENV3, 168 h, RT-qPCR serotype 3 H87, Vero cells, 7 days
Description: Vero cells (4×10^4) were seeded in 96-well plates. […] Following a 2 hour incubation period, the cell monolayer was washed 3 times with assay medium to remove residual, non-adsorbed virus and cultures were further incubated for either 4 days (DENV-2 NGC-Tongalike) or 7 days (DENV-1 Djibouti strain D1/H/IMTSSA/98/606, DENV-3 strain H87 prototype, DENV-4 strain H241′) in the presence of the inhibitor. Supernatant was harvested and viral RNA load was determined by real-time quantitative RT-PCR. The 50% effective concentration (EC50), which is defined as the compound concentration that is required to inhibit viral RNA replication by 50%, was determined using logarithmic interpolation (Tables 7 and 8). RNA was isolated from 100 μL supernatant with the NucleoSpin 96 Virus kit (Filter Service, Duren, Germany) as described by the manufacturer. The sequences of the TaqMan primers (DENV-For, DENV-Rev; Table 5) and TaqMan probes (DENV-Probe Table 5) were selected from non-structural gene 3 (NS3) or NS5, of the respective flaviviruses using Primer Express software (version 2.0; Applied Biosystems, Lennik, Belgium). The TaqMan probe was fluorescently labelled with 6-carboxyfluorescein (FAM) at the 5′ end as the reporter dye, and with minor groove binder (MGB) at the 3′ end as the quencher (Table 5). One-step, quantitative RT-PCR was performed in a total volume of 25 μL, containing 13.9375 μL H2O, 6.25 μL master mix (Eurogentec, Seraing, Belgium), 0.375 μL forward primer, 0.375 μL reverse primer, 1 μL probe, 0.0625 μL reverse transcriptase (Eurogentec) and 3 μL sample. RT-PCR was performed using the ABI 7500 Fast Real-Time PCR System (Applied Biosystems, Branchburg, N.J., USA) using the following conditions: 30 min at 48° C. and 10 min at 95° C., followed by 40 cycles of 15 s at 95° C. and 1 min at 60° C. The data was analyzed using the ABI PRISM 7500 SDS software (version 1.3.1; Applied Biosystems). For absolute quantification, standard curves were generated using 10-fold dilutions of template preparations of known concentrations.

Structure (SMILES) | EC50 (DENV-4 strain H241) | EC50 [1]
COc1cc(NC(C(=O)c2c[nH]c3cc(F)ccc23)c2ccc(F)cc2OC)cc(OCCO)c1 (single isomer, unassigned) [Compound 1A, 1-(6-fluoro-1H-indol-3-yl)-2-(4-fluoro-2-methoxyphenyl)-2-((3-(2-hydroxyethoxy)-5-methoxyphenyl)amino)ethanone] | 480 nM | 53 nM
COc1cc(NC(C(=O)c2c[nH]c3c(C)c(F)ccc23)c2ccc(F)cc2OC)cc(OCCO)c1 (single isomer, unassigned) [Compound 2B, 2-(4-fluoro-2-methoxyphenyl)-1-(6-fluoro-7-methyl-1H-indol-3-yl)-2-((3-(2-hydroxyethoxy)-5-methoxyphenyl)amino)ethanone] | 320 nM | 42 nM
COc1cc(NC(C(=O)c2c[nH]c3c(C)c(Cl)ccc23)c2ccc(F)cc2OC)cc(OCCO)c1 (single isomer, unassigned) [Compound 3A, 1-(6-chloro-7-methyl-1H-indol-3-yl)-2-(4-fluoro-2-methoxyphenyl)-2-((3-(2-hydroxyethoxy)-5-methoxyphenyl)amino)ethanone] | 240 nM | 32 nM
COc1cc(NC(C(=O)c2c[nH]c3cc(Cl)ccc23)c2ccc(F)cc2OC)cc(OCCO)c1 (single isomer, unassigned) [Compound 4A, 1-(6-chloro-1H-indol-3-yl)-2-(4-fluoro-2-methoxyphenyl)-2-((3-(2-hydroxyethoxy)-5-methoxyphenyl)amino)ethanone] | 400 nM | 16 nM
COc1cc(NC(C(=O)c2c[nH]c3c(F)c(F)ccc23)c2ccc(F)cc2OC)cc(OCCO)c1 (single isomer, unassigned) [Compound 5B, 1-(6,7-difluoro-1H-indol-3-yl)-2-(4-fluoro-2-methoxyphenyl)-2-((3-(2-hydroxyethoxy)-5-methoxyphenyl)amino)ethanone] | 450 nM | 50 nM
COc1cc(NC(C(=O)c2c[nH]c3cc(OC)c(C)cc23)c2ccc(F)cc2OC)cc(OCCO)c1 (single isomer, unassigned) [Compound 6A, 2-(4-fluoro-2-methoxyphenyl)-2-((3-(2-hydroxyethoxy)-5-methoxyphenyl)amino)-1-(6-methoxy-5-methyl-1H-indol-3-yl)ethanone] | 200 nM | 20 nM
COc1cc(NC(C(=O)c2c[nH]c3cc(OC)c(F)cc23)c2ccc(F)cc2OC)cc(OCCO)c1 (single isomer, unassigned) [Compound 7A, 2-(4-fluoro-2-methoxyphenyl)-1-(5-fluoro-6-methoxy-1H-indol-3-yl)-2-((3-(2-hydroxyethoxy)-5-methoxyphenyl)amino)ethanone] | 470 nM | 41 nM
COc1cc(NC(C(=O)c2c[nH]c3c(Cl)c(OC)ccc23)c2ccc(F)cc2OC)cc(OCCO)c1 (single isomer, unassigned) [Compound 8A, 1-(7-chloro-6-methoxy-1H-indol-3-yl)-2-(4-fluoro-2-methoxyphenyl)-2-((3-(2-hydroxyethoxy)-5-methoxyphenyl)amino)ethanone] | 520 nM | 29 nM
COc1cc(NC(C(=O)c2c[nH]c3c(C)cc(F)cc23)c2ccc(F)cc2OC)cc(OCCO)c1 (single isomer, unassigned) [Compound 9B, 2-(4-fluoro-2-methoxyphenyl)-1-(5-fluoro-7-methyl-1H-indol-3-yl)-2-((3-(2-hydroxyethoxy)-5-methoxyphenyl)amino)ethanone] | 390 nM | 66 nM
COc1cc(NC(C(=O)c2c[nH]c3cc(F)c(F)cc23)c2ccc(F)cc2OC)cc(OCCO)c1 (single isomer, unassigned) [Compound 10B, 1-(5,6-difluoro-1H-indol-3-yl)-2-(4-fluoro-2-methoxy-phenyl)-2-((3-(2-hydroxyethoxy)-5-methoxyphenyl)amino)ethanone] | 390 nM | < 22 nM
COc1cc(NC(C(=O)c2c[nH]c3c(C)c(OC)ccc23)c2ccc(F)cc2OC)cc(OCCO)c1 (single isomer, unassigned) [Compound 11A, 2-(4-fluoro-2-methoxyphenyl)-2-((3-(2-hydroxyethoxy)-5-methoxyphenyl)amino)-1-(6-methoxy-7-methyl-1H-indol-3-yl)ethanone] | 350 nM | 40 nM
COc1cc(NC(C(=O)c2c[nH]c3c(F)cc(C)cc23)c2ccc(F)cc2OC)cc(OCCO)c1 (single isomer, unassigned) [Compound 12B, 2-(4-fluoro-2-methoxyphenyl)-1-(7-fluoro-5-methyl-1H-indol-3-yl)-2-((3-(2-hydroxyethoxy)-5-methoxyphenyl)amino)ethanone] | 290 nM | 77 nM
